Assay results from patent US9458217B2, “Methods of managing graft versus host disease” (EMORY UNIVERSITY, priority 2013, dated 2016).
“Also recorded” adds a separate entry of the source. Where no end group is shown, it is not given here.

Experiments:
T cells = experiment: T cell proliferation in primary MLR with drug-treated bone marrow; assay type: cell-based, mice
cross-dressed CD11c+ APC = experiment: Drug inhibition of trogocytosis in MLR (frequency of cross-dressed CD11c+ APC by flow cytometry); assay type: cell-based, mice
Description: The frequency of cross-dressed CD11c+ APC on day 6 of MLR was assessed by flow cytometry.
Whether drugs can inhibit cross-dressed APCs from facilitating antigen presentation to donor T cells and prevent GVHD following allo-HSCT was tested. Cross-dressed donor CD11c+ APCs were generated in vivo following allo-HSCT (FIG. 1).

CD11c+ cells = experiment: Cell viability / direct cytotoxicity on drug exposure in vitro; conditions: at the doses that inhibit trogocytosis (FIG. 3)

| Compound | T cell proliferation in primary MLR (T cells; bone marrow treated with 0.05 uM, compared to non-drug treated bone marrow) | allo-reactivity (T cells; summary statement of the data) | exchange of plasma membrane fragments (trogocytosis; frequency of cross-dressed CD11c+ APC) (cross-dressed CD11c+ APC; in vitro generated cross-dressed CD11c+ cells, day 6 of MLR, flow cytometry (FIG. 3)) | semi-direct presentation of allo-antigen to T cells (cross-dressed CD11c+ APC; summary statement of the data) | cell viability / direct cytotoxic effects (CD11c+ cells) | cell viability / direct cytotoxic effects (CD11c+ cells; listed as VIP antagonist) |
| --- | --- | --- | --- | --- | --- | --- |
| CC(=O)O[C@H]1C(=O)[C@@]2(C)[C@H]([C@H](OC(=O)c3ccccc3)[C@]3(O)C[C@H](OC(=O)[C@H](O)[C@@H](NC(=O)c4ccccc4)c4ccccc4)C(C)=C1C3(C)C)[C@]1(OC(C)=O)CO[C@@H]1C[C@@H]2O [paclitaxel] | significantly decreased | reduce allo-reactivity | inhibited | reduce semi-direct presentation | without direct cytotoxic effects; also recorded: preserving cell viability |  |
| KPRRPYTDNYTRLRKQMAVKKYLNSILN-NH2 [VIPHyb] |  |  |  |  | without direct cytotoxic effects | preserving cell viability |
